{
  "source": "patent US20230063109A1",
  "about": "“MIXTURES COMPRISING NITRIFICATION INHIBITORS AND CARRIERS” (BASF SE, priority 2020, published 2023)",
  "system": "nitrification in soil (microbial biomass)",
  "assay": "Incubation experiment: measurement of the nitrification-inhibiting effect in soil (NH4—N recovery)",
  "settings": "overall summary of the experiments",
  "description": "In all treatments the same nitrogen as well as the same AI (active ingredient) amounts were applied. In case of the two tested nitrification inhibitors DMPP and DMPSA it was 1% NI (nitrification inhibitor) related to the sum of NH2—N and NH4—N of the corresponding carrier fertilizer. In case of physical mixtures, in which only one part of the fertilizers was treated with a NI, the concentrations of the corresponding AI were higher so that the overall amounts of NI were the same as in the control treatment.\n100 g soil (incubated at 20° C. for two weeks to activate the microbial biomass) is filled into 500 ml plastic bottles (e.g. soil sampled from the field) and is moistened to 50% water holding capacity. The fertilizers are treated with the respective products containing the compositions and mixtures of the invention in the appropriate concentration.\nGranules of the treated fertilizers are evenly distributed to the soil. The amount of fertilizer which is applied corresponds to 10 mg of reduced nitrogen per bottle.\nThe bottles are capped loosely to allow air exchange. The bottles are then incubated at 20° C. for 28 days.\nFor analysis, 300 mL of a 1% K2SO4-solution is added to the bottle containing the soil and shaken for 2 hours in a horizontal shaker at 150 rpm. […] The ammonium contents of the filtrates are analyzed with an autoanalyzer at 550 nm (Merck, AA11).",
  "data": [
    {"substance": "2-(3,4-dimethyl-1H-pyrazol-1-yl)succinic acid and/or 2-(4,5-dimethyl-1H-pyrazol-1-yl)succinic acid [DMPSA]", "values": [
      {"measurement": "inhibition of nitrification (in words)", "result": "sufficiently be inhibited"}
    ]},
    {"substance": "3,4-dimethyl pyrazole phosphate and/or 4,5-dimethyl pyrazole phosphate [DMPP]", "values": [
      {"measurement": "inhibition of nitrification (in words)", "result": "sufficiently be inhibited"}
    ]}
  ]
}
